In paper PMC8586700 (Frontiers in Pharmacology, 2021):
Where two headings read alike, the source gives them in different places.

Columns and labels:
[1] = Repeated administration, drug concentrations of plasma and brain; assay type: in vivo, SD rats; details: for Mean concentrations±sd, DHC in plasma after multiple doses: loading dose then half doses for four consecutive days
Protocol: (§1) Plasma or brain homogenate of SD rats was taken 50 μL, internal standard solution of 50 μL and protein precipitator of 150 μL were added. After eddy oscillation for 3 min, supernatant was separated by centrifugation.
The concentration of drugs in plasma and brain homogenate after repeated administration was determined according to the same grouping and administration method. The loading dose of 200 mg kg^−1 was given for the first time and half doses for four consecutive days.
(§2) Plasma was collected by centrifugation of blood at 3000 RPM for 10min, and stored at -80 °C. Brain tissue of SD rat was dissected, weighed and added with normal saline at a volume of 2 ml g^−1. After homogenating brain tissue for 3 min by a homogenizer at 14,000 RPM, the supernatant was collected after centrifugation at 12,000 RPM for 10 min.

[2] = Stability experiment in plasma and brain homogenate samples; assay type: in vitro ADME, SD rats
Protocol: Three blank samples of plasma and brain homogenate of SD rats were added into the mixed standard solution. The stability experiment included placing at room temperature for 12 h, repeatedly freeze-thaw for three times and frozen for 15 days.

[3] = Pharmacokinetic experiment, single intragastric administration, plasma by HPLC-UV; assay type: in vivo, SD rats; details: for AUC / Cmax / half-life / Tmax / concentration at 40 min / concentration at 60 min / concentration at 90 min / concentration at 150 min / concentration at 210 min: SD (Sprague-Dawley); for AUC / Cmax / half-life / Tmax / concentration at 40 min / concentration at 60 min / concentration at 90 min / concentration at 150 min / concentration at 210 min / concentration at 20 min / concentration at 270 min / concentration at 330 min: rat, plasma, po; for AUC / Cmax / half-life / Tmax: 200 mg/kg; for AUC: read-out: AUC(0-tn) of DHC (converted); for Cmax: read-out: Cmax of DHC; for half-life: read-out: T1/2 of DHC; for Tmax: read-out: Tmax of DHC (converted); for concentration at 40 min / concentration at 60 min / concentration at 90 min / concentration at 150 min / concentration at 210 min / concentration at 20 min / concentration at 270 min / concentration at 330 min: read-out: Mean concentrations ±sd, DHC; for concentration at 20 min / concentration at 270 min / concentration at 330 min: SD
Protocol: An Agilent 1200 HPLC system was used. […] The flow rate was set at 1 ml min^−1 and detection wavelength was 420, 340 and 323 nm. Injection volume was 5 μL. The column temperature was set at 30°C.
as §1
Blood samples were collected from tail vein at 20 min, 40 min, 1, 1.5, 2.5, 3.5, 4.5, and 5.5 h after intragastric administration.
as §2

[4] = Group A: CUR 200 mg kg^−1 oral alone
[5] = Group B: CUR 200 mg kg^−1 and PIP 150 mg kg^−1 oral
[6] = Group C: CUR 200 mg kg^−1 and ILE 150 mg kg^−1 oral
[7] = Group A (CUR 200 mg kg^−1 oral alone)
[8] = Group B (CUR 200 mg kg^−1 and PIP 150 mg kg^−1 oral)
[9] = Group C (CUR 200 mg kg^−1 and ILE 150 mg kg^−1 oral)
[10] = combined CUR and ILE compared with CUR alone
[11] = combined CUR and ILE compared with combined administration with PIP
[12] = combined CUR and PIP compared with single CUR administration

Mean concentrations±sd, DHC in plasma after multiple doses ([1]; Group I: CUR): 1400 ± 600 ng/mL | Mean concentrations±sd, DHC in plasma after multiple doses ([1]; Group II: CUR and PIP): 4600 ± 1800 ng/mL | Mean concentrations±sd, DHC in plasma after multiple doses ([1]; Group III: CUR and ILE): 8700 ± 2500 ng/mL | Detection in brain tissue ([1]; after repeated administration): could not be detected | Recoveries after repeated freezing-thawing for three times ([2]; plasma): over 100% | Recoveries after being kept at room temperature for 12 h ([2]; plasma samples): less than 30% | CL of DHC [3, 4]: 233.2 ± 7.8 mL/min | Vd of DHC [3, 4]: 9,087.6 ± 302.9 mL | CL of DHC [3, 5]: 70.0 ± 3.3 mL/min | Vd of DHC [3, 5]: 2,802.6 ± 133.4 mL | CL of DHC [3, 6]: 52.7 ± 2.3 mL/min | Vd of DHC [3, 6]: 3,751.4 ± 165.6 mL | AUC [3, 4]: 7610 ng·h/mL | Cmax [3, 4]: 6100 ± 3200 ng/mL | half-life [3, 4]: 24.8 ± 9.3 min | Tmax [3, 4]: 26 min | AUC [3, 5]: 7060 ng·h/mL | Cmax [3, 5]: 7500 ± 1100 ng/mL | half-life [3, 5]: 25.4 ± 6.3 min | Tmax [3, 5]: 22 min | AUC [3, 6]: 16800 ng·h/mL | Cmax [3, 6]: 9200 ± 2400 ng/mL | half-life [3, 6]: 114 ± 31.2 min | Tmax [3, 6]: 18 min | concentration at 40 min [3, 7]: 3500 ± 900 ng/mL | concentration at 60 min [3, 7]: 1800 ± 500 ng/mL | concentration at 90 min [3, 7]: 1400 ± 500 ng/mL | concentration at 150 min [3, 7]: 1200 ± 700 ng/mL | concentration at 210 min [3, 7]: 1100 ± 300 ng/mL | concentration at 40 min [3, 8]: 4000 ± 600 ng/mL | concentration at 60 min [3, 8]: 2600 ± 500 ng/mL | concentration at 90 min [3, 8]: 2000 ± 400 ng/mL | concentration at 150 min [3, 8]: 1000 ± 300 ng/mL | concentration at 210 min [3, 8]: 600 ± 200 ng/mL | concentration at 40 min [3, 9]: 6300 ± 700 ng/mL | concentration at 60 min [3, 9]: 4800 ± 700 ng/mL | concentration at 90 min [3, 9]: 4000 ± 1200 ng/mL | concentration at 150 min [3, 9]: 3800 ± 700 ng/mL | concentration at 210 min [3, 9]: 2600 ± 100 ng/mL | concentration at 20 min [3, 7]: 6100 ± 3200 ng/mL | concentration at 270 min [3, 7]: 900 ± 400 ng/mL | concentration at 330 min [3, 7]: 800 ± 400 ng/mL | concentration at 20 min [3, 8]: 7500 ± 1100 ng/mL | concentration at 270 min [3, 8]: 250 ± 30 ng/mL | concentration at 330 min [3, 8]: 150 ± 30 ng/mL | concentration at 20 min [3, 9]: 9200 ± 2400 ng/mL | concentration at 270 min [3, 9]: 1400 ± 700 ng/mL | concentration at 330 min [3, 9]: 600 ± 200 ng/mL | AUC(0-tn) of DHC increased by [3, 10]: 1.2 times | CL of DHC reduced by [3, 10]: 77.4% | Cmax of DHC increased by [3, 10]: 50.8% | T1/2 of DHC increased by [3, 10]: 3.6 times | Tmax of DHC decreased by [3, 10]: 30.8% | Vd of DHC reduced by [3, 10]: 58.6% | Vd of DHC increased by ([3]; combined CUR and ILE compared with CUR and PIP combined): 34% | CL of DHC reduced by ([3]; combined CUR and ILE compared with CUR combined with PIP): 24.6% | AUC(0-tn) of DHC increased by [3, 11]: 1.4 times | Cmax of DHC increased by [3, 11]: 22.7% | T1/2 of DHC increased by [3, 11]: 3.5 times | Tmax of DHC decreased by [3, 11]: 18.2% | AUC(0-tn) of DHC decreased by [3, 12]: 7.2% | CL of DHC decreased by [3, 12]: 70% | Cmax of DHC increased by [3, 12]: 23% | Tmax of DHC decreased by [3, 12]: 15.4% | Vd of DHC decreased by [3, 12]: 69.2%
SMILES: COc1cc(/C=C/C(=O)CC(=O)CCc2ccc(O)c(OC)c2)ccc1O [DHC, Dihydrocurcumin]
